Measurements as given in patent US9828350B2, “5,6-dihydro-2H-[1,4]oxazin-3-yl-amine derivatives useful as inhibitors of beta-secretase (BACE)” (Janssen Pharmaceutica NV, priority 2010, dated 2017).
Where a name gives a salt, the structure may show the parent alone.

Experiments:
[1] = target: recombinant BACE1 protein (Homo sapiens, UniProt P56817); experiment: Biochemical FRET based assay; details: recombinant BACE1 1 μg/ml, 120 minutes at room temperature, pH 5.0; read-out: Biochemical FRET based assay pIC50 (converted)
recombinant BACE1 protein, sequence (P56817 46-501): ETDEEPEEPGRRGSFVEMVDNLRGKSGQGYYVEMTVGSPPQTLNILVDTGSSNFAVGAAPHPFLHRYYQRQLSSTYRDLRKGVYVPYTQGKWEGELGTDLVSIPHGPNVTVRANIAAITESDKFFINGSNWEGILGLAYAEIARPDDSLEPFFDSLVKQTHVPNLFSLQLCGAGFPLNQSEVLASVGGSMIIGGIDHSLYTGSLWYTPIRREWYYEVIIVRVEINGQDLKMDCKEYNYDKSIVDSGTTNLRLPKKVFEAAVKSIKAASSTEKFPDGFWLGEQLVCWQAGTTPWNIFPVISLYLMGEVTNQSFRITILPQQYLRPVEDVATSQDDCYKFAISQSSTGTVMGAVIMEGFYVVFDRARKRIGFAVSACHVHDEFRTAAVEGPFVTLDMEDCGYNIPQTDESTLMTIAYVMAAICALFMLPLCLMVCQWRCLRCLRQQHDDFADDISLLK
Text: Biochemical FRET Based Assay
This assay is a Fluorescence Resonance Energy Transfer Assay (FRET) based assay. The substrate for this assay is an APP derived 13 amino acids peptide that contains the ‘Swedish’ Lys-Met/Asn-Leu mutation of the amyloid precursor protein (APP) beta-secretase cleavage site. This substrate also contains two fluorophores: (7-methoxycoumarin-4-yl) acetic acid (Mca) is a fluorescent donor with excitation wavelength at 320 nm and emission at 405 nm and 2,4-Dinitrophenyl (Dnp) is a proprietary quencher acceptor. […] Upon cleavage by BACE1, the fluorophore Mca is separated from the quenching group Dnp, restoring the full fluorescence yield of the donor. The increase in fluorescence is linearly related to the rate of proteolysis.
Briefly in a 384-well format recombinant BACE1 protein in a final concentration of 1 μg/ml is incubated for 120 minutes at room temperature with […] substrate in incubation buffer (40 mM Citrate buffer pH 5.0, 0.04% PEG, 4% DMSO) in the absence or presence of compound. Next the amount of proteolysis is directly measured by fluorescence measurement at T=0 and T=120 (excitation at 320 nm and emission at 405 nm). Results are expressed in RFU (Relative Fluorescence Units), as difference between T120 and TO.

Abeta total = experiment: Cellular αLisa assay in SKNBE2 cells, Abeta total; format: cell-based, human; details: incubated for 18 hours; for IC50: Homo sapiens, SKNBE2, 18 h, read-out: Cellular αLisa assay in SKNBE2 cells Abetatotal pIC50 (converted)
Procedure: (§1) Cellular αLisa Assay in SKNBE2 Cells
(§2) In two αLisa assays the levels of Abeta total and Abeta 1-42 produced and secreted into the medium of human neuroblastoma SKNBE2 cells are quantified. The assay is based on the human neuroblastoma SKNBE2 expressing the wild type Amyloid Precursor Protein (hAPP695). The compounds are diluted and added to these cells, incubated for 18 hours and then measurements of Abeta 1-42 and Abeta total are taken. Abeta total and Abeta 1-42 are measured by sandwich αLisa. αLisa is a sandwich assay using biotinylated antibody AbN/25 attached to streptavidin coated beads and antibody Ab4G8 or cAb42/26 conjugated acceptor beads for the detection of Abeta total and Abeta 1-42 respectively. In the presence of Abeta total or Abeta 1-42, the beads come into close proximity. The excitation of the donor beads provokes the release of singlet oxygen molecules that trigger a cascade of energy transfer in the acceptor beads, resulting in light emission. Light emission is measured after 1 hour incubation (excitation at […] and emission at 615 nm).

Abeta 1-42 = experiment: Cellular αLisa assay in SKNBE2 cells, Abeta 1-42; format: cell-based, human; details: incubated for 18 hours; for IC50: Homo sapiens, SKNBE2, 18 h, read-out: Cellular αLisa assay in SKNBE2 cells Abeta 42 pIC50 (converted)
Procedure: as §1, §2

SMILES	IC50 [1] [nM]	IC50 (Abeta total) [nM]	IC50 (Abeta 1-42) [nM]	Cellular αLisa assay in SKNBE2 cells Abetatotal pIC50 (Abeta total)	Cellular αLisa assay in SKNBE2 cells Abeta 42 pIC50 (Abeta 1-42)
N#Cc1cnc(C(=O)Nc2ccc(F)c([C@@]3(C4CC4)N=C(N)CO[C@H]3C(F)(F)F)c2)c(Cl)c1 [Compound 235]	33.1	14.1	14.5	–	–
C[C@]1(c2cc(NC(=O)c3ncc(C#N)cc3Cl)ccc2F)N=C(N)CO[C@@]1(F)C(F)(F)F [Compound 307]	200	93.3	107	–	–
COc1cncc(-c2cccc(C3(C)COC4(CC4)C(N)=N3)c2)c1 (racemic) [Compound 16, rac-6-[3-(5-methoxypyridin-3-yl)phenyl]-6-methyl-4-oxa-7-azaspiro[2.5]oct-7-en-8-amine]	2190	355	389	–	–
NC1=N[C@@](c2cccc(NC(=O)c3cnc(OCC(F)(F)F)cn3)c2)(C2CC2)[C@H](C(F)(F)F)OC1 [Compound 289]	30.9	10.5	10	–	–
NC1=N[C@@](c2cccc(NC(=O)c3ncc(Cl)cc3F)c2)(C2CC2)[C@H](C(F)(F)F)OC1 [Compound 288]	33.1	7.41	7.76	–	–
COc1cnc(C(=O)Nc2cccc(C3(C)N=C(N)COC3(F)C(F)(F)F)c2)cn1 (single isomer, unassigned) [Compound 176]	1290	–	–	6.38	6.34
N#Cc1cncc(-c2cccc([C@@]3(C4CC4)N=C(N)CO[C@@H]3F)c2)c1 [Compound 311]	1380	1120	1450	–	–
C[C@@]1(c2ccnc(-c3cc(Cl)cc(Cl)c3)c2)N=C(N)CO[C@H]1F (single isomer, unassigned) [Compound 278, (5S*,6S*)-5-[2-(3,5-dichlorophenyl)pyridin-4-yl]-6-fluoro-5-methyl-5,6-dihydro-2H-1,4-oxazin-3-amine]	8710	3160	3240	–	–
COc1cnc(C(=O)Nc2cccc(C3(C)N=C(N)COC3F)c2)cn1 (stereo not drawn) [Compound 80]	97.7	53.7	60.3	–	–
COc1ccc(C(=O)Nc2cccc([C@@]3(C)N=C(N)CO[C@@]3(F)C(F)(F)F)c2)nc1 [Compound 248]	–	209	229	–	–
COc1cnc(C(=O)Nc2ccc(F)c(C3(C)N=C(N)COC3F)c2)cn1 (single isomer, unassigned) [Compound 129]	–	4570	5250	–	–
NC1=N[C@@](c2cc(-c3cncc(Cl)c3)ccc2F)(C2CC2)[C@H](F)OC1 [Compound 273]	–	6460	8130	–	–
COc1ccc(C(=O)Nc2cccc([C@@]3(C)N=C(N)CO[C@]3(F)C(F)(F)F)c2)nc1 [Compound 247]	–	14.5	16.2	–	–
COc1cnc(C(=O)Nc2ccc(F)c(C3(C4CC4)N=C(N)COC3F)c2)cn1.Cl (stereo not drawn) [Compound 244]	–	–	–	7.11	–
CC1(c2cccc(-c3cncnc3)c2)COCC(N)=N1 (racemic) [Compound 3, rac-5-methyl-5-(3-pyrimidin-5-ylphenyl)-5,6-dihydro-2H-1,4-oxazin-3-amine trifluoroacetate salt]	–	646	631	–	–

The remaining lines, values ahead:

IC50 [1] [nM]	IC50 (Abeta total) [nM]	IC50 (Abeta 1-42) [nM]	Cellular αLisa assay in SKNBE2 cells Abetatotal pIC50 (Abeta total)	Cellular αLisa assay in SKNBE2 cells Abeta 42 pIC50 (Abeta 1-42)	SMILES
–	11.2	11	–	–	CC1(c2cc(NC(=O)c3ccc(C#N)cn3)ccc2F)N=C(N)COC1F (stereo not drawn) [Compound 76]
–	–	–	<4.82	<4.82	CC1(c2cc(NC(=O)c3ccc(Cl)cn3)ccc2F)N=C(N)COC1F (single isomer, unassigned) [Compound 137]
–	–	–	8.3945	8.39	C[C@@]1(c2cc(NC(=O)c3ccc(Cl)cn3)ccc2F)COCC(N)=N1 [Compound 44]
–	–	–	8.39	8.39	C[C@@]1(c2cc(NC(=O)c3ccc(Cl)cn3)ccc2F)COCC(N)=N1 [Compound 62]
–	–	–	8.13	8.14	CC1(c2cc(NC(=O)c3ccc(Cl)cn3)ccc2F)N=C(N)COC1C(F)(F)F (stereo not drawn) [Compound 165]
–	–	–	5.27	5.26	CC1(c2cc(NC(=O)c3ccc(Cl)cn3)ccc2F)N=C(N)COC1F (single isomer, unassigned) [Compound 136]
–	22.4	22.9	–	–	C[C@]1(c2cc(NC(=O)c3ccc(Cl)cn3)ccc2F)N=C(N)CO[C@@]1(F)C(F)(F)F (single isomer, unassigned) [Compound 110, (2S*,3R*)—N-{3-[5-amino-2-fluoro-3-methyl-2-(trifluoromethyl)-3,6-dihydro-2H-1,4-oxazin-3-yl]-4-fluorophenyl}-5-chloropyridine-2-carboxamide]
–	12.6	15.5	–	–	CC1(c2cc(NC(=O)c3ccc(Cl)cn3)ccc2F)N=C(N)COC1C(F)(F)F (racemic) [Compound 107, trans-rac-N-{3-[5-amino-3-methyl-2-(trifluoromethyl)-3,6-dihydro-2H-1,4-oxazin-3-yl]-4-fluorophenyl}-5-chloropyridine-2-carboxamide]
–	–	–	8.3	8.27	CC1(c2cc(NC(=O)c3ncc(Cl)cc3Cl)ccc2F)COCC(N)=N1 (stereo not drawn) [Compound 21]
–	–	–	5.5	5.82	CC1(c2cccc(NC(=O)c3ccc(Cl)cn3)c2)N=C(N)COC1(F)C(F)(F)F (single isomer, unassigned) [Compound 114]
–	–	–	8	8	CC1(c2cc(NC(=O)c3ccc(Cl)cn3)ccc2F)N=C(N)COC1C(F)(F)F (stereo not drawn) [Compound 170]
–	–	–	8.3	8.32	CC1(c2cc(NC(=O)c3ccc(Cl)cn3)ccc2F)COCC(N)=N1 (racemic) [Compound 65]
–	–	–	6.68	–	CC1(c2cccc(NC(=O)c3ccc(Cl)cn3)c2)N=C(N)COC1(F)C(F)(F)F (single isomer, unassigned) [Compound 115]
–	–	–	6.08	6.15	CC1(c2cc(NC(=O)c3ccc(Cl)cn3)ccc2F)N=C(N)COC1(F)C(F)(F)F.Cl.Cl (single isomer, unassigned) [Compound 159]
–	–	–	8.3	8.32	CC1(c2cc(NC(=O)c3ccc(Cl)cn3)ccc2F)COCC(N)=N1 (racemic) [Compound 17]
–	–	–	5.06	5.04	CC1(c2cc(NC(=O)c3ccc(Cl)cn3)ccc2F)N=C(N)COC1F (single isomer, unassigned) [Compound 135]
–	832	708	–	–	C[C@@]1(c2cc(NC(=O)c3ccc(Cl)cn3)ccc2F)N=C(N)CO[C@]1(F)C(F)(F)F (single isomer, unassigned) [Compound 109, (2R*,3S*)—N-{3-[5-amino-2-fluoro-3-methyl-2-(trifluoromethyl)-3,6-dihydro-2H-1,4-oxazin-3-yl]-4-fluorophenyl}-5-chloropyridine-2-carboxamide]
–	–	–	6.98	6.94	CC1(c2cc(NC(=O)c3ccc(Cl)cn3)ccc2F)COCC(N)=N1 (single isomer, unassigned) [Compound 61]
–	25.7	25.7	–	–	COc1cnc(C(=O)Nc2ccc(F)c(C3(C)N=C(N)COC3F)c2)cn1 (stereo not drawn) [Compound 79]
–	–	–	7.8	7.79	COc1cnc(C(=O)Nc2ccc(F)c(C3(C)COCC(N)=N3)c2)cn1 (racemic) [Compound 57]
–	–	–	6.78	6.75	CC1(c2cc(NC(=O)c3ccc(Cl)cn3)ccc2F)N=C(N)COC1(F)C(F)(F)F (stereo not drawn) [Compound 186]
–	–	–	6.42	6.44	CC1(c2cc(NC(=O)c3ccc(C#N)cn3)ccc2F)N=C(N)COC1F (single isomer, unassigned) [Compound 125]
